Data as given in paper PMC8406304, “Inhibiting Type VI Secretion System Activity with a Biomimetic Peptide Designed To Target the Baseplate Wedge Complex” (mBio, 2021).
Several values for one entry are separate records, joined by “and”; a condition that tells them apart may be missing. Equal values may be shown once. Entries after “also recorded” stand apart in the source; their conditions may differ.

Tests used:
[1] = NMR of the free cyclic peptide; assay type: physicochemical; conditions: 1H-NOESY, 1.8 mM peptide, 50 mM KPO4 pH 6.9, 150 mM NaCl, 300 K
Method: All NMR experiments were recorded at 300 K on a Bruker Avance-II 600 MHz spectrometer equipped with a cryoprobe at the IMM (Institut de Microbiologie de la Mediterranée) NMR platform. The 450-μl peptide sample tube was prepared at 1.8 mM in KPO4 buffer (50 mM KPO4 [pH 6.9], 150 mM NaCl) complemented with 30 μl D2O. 1D ^1H-^1H-TOCSY, ^1H-NOESY, and ^1H-^15N HSQC spectra (F2 = 2048; F1 = 128; NS = 384) (NS is the number of scans [accumulation] for the experiment; F2 is the sweep width; F1 is the Fourier number that defines the 2D spectrum dimensions and its digital resolution) were recorded using default pulse sequences as provided by the manufacturer. For the peptide-TssK interaction experiments, 200 μl of a 410 μM stock of TssK was added to the same sample tube (1.2 mM peptide and 140 μM TssK [final concentration]), and all NMR spectra were recorded with the addition of longer ^1H-^15N HSQC spectrometry (NS = 1,024). All spectra were transformed and the figures were generated using Bruker Topspin 4.0.9.

[2] = tested on: TssK-L14A; test: Isothermal titration calorimetry (ITC), TssK-L14A variant; assay type: binding, enteroaggregative Escherichia coli (EAEC); conditions: 25 μM TssK-L14A, 1 mM wild-type BCP, 50 mM HEPES pH 7.0, 150 mM NaCl, 25°C
Method: (§1) To evaluate the direct interaction between the BCP and its target TssK, we performed isothermal titration calorimetry (ITC) experiments. The wild-type BCP and TssK interact with an observable affinity (KD) of 60 μM (Fig. 5A).
(§2) The working buffer for both proteins and peptide was 50 mM HEPES (pH 7.0), 150 mM NaCl to avoid buffer mismatch. The experiments were performed at 25°C using the MicroCal PEAQ-ITC instrument (Malvern Panalyticals, Malvern, UK) in duplicate with 19 injections, first with an initial injection of 0.4 μl followed by 18 injections of 2 μl. Two assays were performed. In the first, 25 μM WT TssK ligand was in the cell and 1 mM WT BCP analyte was in the syringe. In the second, 25 μM TssK L14A ligand was in the cell and 1 mM WT BCP analyte was in the syringe. The reaction was performed with a constant stirring speed of 750 rpm; each injection lasted for 4 s with a 150-s space between injections. A constant heat control (offset) was removed from the raw data to account for heat dilution before integration. The data were fitted using the One Set of Sites model in the PEAQ-ITC analysis software.

[3] = tested on: TssK-TssFGE (TssKFGE wedge complex); test: Biolayer interferometry (BLI), TssFGE binding to biotinylated TssK; assay type: biochemical, enteroaggregative Escherichia coli (EAEC)
Method: Streptavidin-tagged TssK was purified as described above. The TssK trimer was further polished by size exclusion chromatography using a Superose 6 10/300 GL (GE Healthcare) in 50 mM HEPES (pH 7.0), 150 mM NaCl at 0.25 ml/min. For biolayer interferometry (BLI) experiments, we used high-precision Strep (SAX) biosensors from Forté Bio (number 18-5117) on the BLItz machine (Forté Bio). The trimeric ligand TssK was biotinylated using equimolar N-hydroxysuccinimide (NHS)–polyethylene glycol 4 (PEG4)–biotin (Pierce EZ-Link; 21330) in 50 mM HEPES (pH 7.0), NaCl 150 mM for 1 h at room temperature before buffer exchange in CentriPure P2 (Generon; IRL) columns against 50 mM HEPES (pH 7.0), NaCl 150 mM to remove the excess biotin. BL21(DE3) cells were used to express the interacting analytes TssG-TssF-TssE. In addition, cells containing an empty plasmid were used as a control. Cells were broken as described above, and the clarified supernatants after centrifugation for 30 min at 20,000 × g contained the control and TssFGE lysate. Streptavidin biosensors were hydrated for 10 min in HEPES buffer before binding of the biotinylated TssK. Biotinylated TssK was loaded at 1.2 μM onto the SAX biosensors for 120 s, and then the excess TssK was dissociated in HEPES buffer for 120 s. For the remaining kinetic assays, we used kinetic buffer (PBS [pH 7.3] plus 0.02% Tween 20, 0.1% bovine serum albumin [BSA], 0.05% sodium azide) (Forté Bio number 18-5032) with orbital shaking at 2,200 rpm. Kinetic buffer (KB) was used to dilute the lysates and the peptide to decrease nonspecific signals. The unbound Strep sites were blocked with 2 μM control lysate for 120 s and washed with KB for 120 s. The kinetic assays were performed using three steps with different times: baseline, 30 s; association, 120 s; and dissociation, 120 s. All the following assays were performed in triplicate. […] In the first assay, we added 47 μM lysate expressing the analytes TssG, TssF, and TssE to the bound TssK. In the second assay, we added 1 mM wild-type (WT) BCP to the bound TssK before adding 47 μM TssF-TssG-TssE. In the third assay, to validate the specificity of the WT BCP we added 1 mM mutant BCP that lacks the binding residues to the bound TssK before adding 47 μM TssF-TssG-TssE. Last, to redemonstrate the specificity of the BCP-WT, we added 1 mM randomized BCP that contains the binding residues but out of order to the bound TssK before adding 47 μM TssF-TssG-TssE.

[4] = tested on: TssK; test: Isothermal titration calorimetry (ITC), TssK-WT; assay type: binding, enteroaggregative Escherichia coli (EAEC); conditions: 25°C
Method: as §1, §2

## SRPVMG-SRPVMG-SRPVMG (head to tail) [BCP, biomimetic cyclic peptide SRPVMG-SRPVMG-SRPVMG mimicking TssG foot 1]
[1]
  3D folding / internal structure of free peptide: absence of an internal structure of the free peptide
[2]
  ITC binding signal with TssK-L14A: None of these conditions led to a detectable ITC binding signal; also recorded: lack of binding
[3]; BLI sensogram, control lysate signal (50 μM TssFGE lysate without bound TssK) subtracted, three independent experiments
  TssFGE binding response over time in the presence of the BCP: decreasing binding response over time
[3]; BLI, 47 μM TssFGE lysate, TssK preincubated with 1 mM peptide, kinetic buffer pH 7.3, mean ± SD of three independent assays, listed as wild-type BCP
  maximum binding average response of TssFGE to TssK at 150 s in presence of peptide: 0.121 ± 0.010 nm and 0.121 ± 0.0102 nm
[3]; BLI, 1 mM peptide, in words
  interference with TssKFGE formation: significatively interferes with the TssKFGE formation
[4]; ITC signature plot, TssK-WT with BCP, pH 7.0
  ITC binding signature: enthalpy / ΔG: driven by a favorable enthalpy; also recorded: enthalpy-driven interaction with a favorable ΔG
[4]; ITC, 25 μM TssK-WT in cell, 1 mM BCP in syringe, 50 mM HEPES pH 7.0, 150 mM NaCl, duplicate, One Set of Sites fit, read-out: observable affinity (KD)
  Kd: 60 µM
